ChEMBL document CHEMBL1201862, “PubChem BioAssay data set” (2004)
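Assay format: 96-well plates, 48-hour exposure. GI50 = concentration required for 50% inhibition of growth.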 Calls of active or inactive are those of the source. Rule as the data show it: active = GI50 up to about 1.1 µM and inactive = higher.

Legend:
Experiment in all cases: NCI anticancer screen, dose series, 48 h
[1] = tested on: OVCAR-3
[2] = tested on: MDA-MB-435
[3] = tested on: SW-620
[4] = tested on: HOP-92
[5] = tested on: 786-0
[6] = tested on: SNB-19
[7] = tested on: UACC-257
[8] = tested on: MCF7
[9] = tested on: COLO 205
[10] = tested on: A549
[11] = tested on: SK-MEL-28
[12] = tested on: NCI-H23
[13] = tested on: HT-29
[14] = tested on: M14
[15] = tested on: IGROV-1
[16] = tested on: TK-10
[17] = tested on: CAKI-1
[18] = tested on: T47D
[19] = tested on: MOLT-4
[20] = tested on: OVCAR-4

CC1(C)CSCC(C)(C)C(=N/N)/C1=N\N
GI50 [1]: > 100 µM (inactive)
GI50 [2]: > 100 µM (inactive)
GI50 [3]: > 100 µM (inactive)
GI50 [4]: > 100 µM (inactive)
GI50 [5]: > 100 µM (inactive)
GI50 [6]: > 100 µM (inactive)
GI50 [7]: > 100 µM (inactive)
GI50 [8]: > 100 µM (inactive)
GI50 [9]: > 100 µM (inactive)
GI50 [10]: > 100 µM (inactive)
GI50 [11]: > 100 µM (inactive)
GI50 [12]: > 100 µM (inactive)
GI50 [13]: > 100 µM (inactive)
GI50 [14]: > 100 µM (inactive)
GI50 [15]: > 100 µM (inactive)
GI50 [16]: > 100 µM (inactive)
GI50 [17]: > 100 µM (inactive)
GI50 [18]: > 100 µM (inactive)

O=c1oc2ccccc2cc1-c1cn2c(n1)sc1ccccc12
GI50 [1]: > 100 µM (inactive)
GI50 [2]: 29.3 µM (inactive)
GI50 [3]: > 100 µM (inactive)
GI50 [4]: > 100 µM (inactive)
GI50 [5]: > 100 µM (inactive)
GI50 [7]: > 100 µM (inactive)
GI50 [19]: > 100 µM (inactive)
GI50 [8]: 4.75 µM (inactive)
GI50 [9]: > 100 µM (inactive)
GI50 [10]: > 100 µM (inactive)
GI50 [11]: > 100 µM (inactive)
GI50 [12]: > 100 µM (inactive)
GI50 [13]: 1.15 µM (inactive)
GI50 [14]: > 100 µM (inactive)
GI50 [15]: > 100 µM (inactive)
GI50 [16]: > 100 µM (inactive)
GI50 [17]: > 100 µM (inactive)
GI50 [18]: > 100 µM (inactive)

CCCCCCCCCCCCNC(=O)NCC(OCC)OCC
GI50 [2]: > 10 µM (inactive)
GI50 [3]: > 10 µM (inactive)
GI50 [4]: > 10 µM (inactive)
GI50 [5]: > 10 µM (inactive)
GI50 [6]: > 10 µM (inactive)
GI50 [7]: > 10 µM (inactive)
GI50 [19]: > 10 µM (inactive)
GI50 [8]: > 10 µM (inactive)
GI50 [9]: > 10 µM (inactive)
GI50 [10]: > 10 µM (inactive)
GI50 [11]: > 10 µM (inactive)
GI50 [12]: > 10 µM (inactive)
GI50 [13]: > 10 µM (inactive)
GI50 [14]: > 10 µM (inactive)
GI50 [15]: > 10 µM (inactive)
GI50 [16]: > 10 µM (inactive)
GI50 [20]: > 10 µM (inactive)
GI50 [17]: > 10 µM (inactive)
GI50 [18]: > 10 µM (inactive)

Cc1cc2nc(C#N)c(N3CCN(c4ccc([N+](=O)[O-])cc4)CC3)nc2cc1C
GI50 [1]: > 100 µM (inactive)
GI50 [2]: > 100 µM (inactive)
GI50 [3]: > 100 µM (inactive)
GI50 [4]: 50.4 µM (inactive)
GI50 [5]: 52.7 µM (inactive)
GI50 [6]: 67 µM (inactive)
GI50 [7]: > 100 µM (inactive)
GI50 [8]: > 72.8 µM (inactive)
GI50 [9]: > 100 µM (inactive)
GI50 [10]: > 100 µM (inactive)
GI50 [11]: > 100 µM (inactive)
GI50 [12]: > 64.9 µM (inactive)
GI50 [13]: > 88.5 µM (inactive)
GI50 [14]: > 95.9 µM (inactive)
GI50 [15]: > 100 µM (inactive)
GI50 [16]: > 66.5 µM (inactive)
GI50 [20]: 73.6 µM (inactive)
GI50 [17]: > 70 µM (inactive)
GI50 [18]: 66.2 µM (inactive)

CCCCCCCCCCCCCCCCCCNC(=S)NC=C1C(=O)c2ccccc2C1=O
GI50 [1]: 13.8 µM (inactive)
GI50 [2]: 15.9 µM (inactive)
GI50 [3]: 11.1 µM (inactive)
GI50 [4]: 3 µM (inactive)
GI50 [5]: 9.12 µM (inactive)
GI50 [6]: 17.3 µM (inactive)
GI50 [7]: 17.9 µM (inactive)
GI50 [19]: 4.03 µM (inactive)
GI50 [8]: 12 µM (inactive)
GI50 [9]: 15.7 µM (inactive)
GI50 [10]: 13.2 µM (inactive)
GI50 [11]: 16.9 µM (inactive)
GI50 [12]: 15.6 µM (inactive)
GI50 [13]: 11.5 µM (inactive)
GI50 [14]: 10.3 µM (inactive)
GI50 [15]: 1.4 µM (inactive)
GI50 [16]: 16.6 µM (inactive)
GI50 [17]: 15.5 µM (inactive)
GI50 [18]: 15.8 µM (inactive)

S=C(N1CCN(c2ccc(Cl)c(Cl)c2)CC1)N1CCN(c2ccc(Cl)c(Cl)c2)CC1
GI50 [1]: 13.5 µM (inactive)
GI50 [2]: 15.4 µM (inactive)
GI50 [3]: 17.5 µM (inactive)
GI50 [5]: 10.8 µM (inactive)
GI50 [6]: 12.5 µM (inactive)
GI50 [7]: 17.1 µM (inactive)
GI50 [19]: 6.18 µM (inactive)
GI50 [8]: 11.7 µM (inactive)
GI50 [9]: 10.6 µM (inactive)
GI50 [10]: 16.3 µM (inactive)
GI50 [11]: 14.7 µM (inactive)
GI50 [12]: 15.3 µM (inactive)
GI50 [13]: 9.42 µM (inactive)
GI50 [14]: 15.6 µM (inactive)
GI50 [15]: 10.7 µM (inactive)
GI50 [16]: 13.4 µM (inactive)
GI50 [20]: 13.7 µM (inactive)
GI50 [17]: 7.4 µM (inactive)
GI50 [18]: 7.94 µM (inactive)

O=c1[nH]nc(Cc2ccc(Cl)cc2)n1/N=C/c1ccco1
GI50 [1]: > 100 µM (inactive)
GI50 [2]: > 100 µM (inactive)
GI50 [3]: > 100 µM (inactive)
GI50 [4]: 93.8 µM (inactive)
GI50 [5]: 30.4 µM (inactive)
GI50 [6]: 25.4 µM (inactive)
GI50 [7]: > 100 µM (inactive)
GI50 [19]: > 100 µM (inactive)
GI50 [8]: 3.15 µM (inactive)
GI50 [9]: > 100 µM (inactive)
GI50 [10]: > 100 µM (inactive)
GI50 [11]: > 100 µM (inactive)
GI50 [12]: 34.8 µM (inactive)
GI50 [13]: 33.1 µM (inactive)
GI50 [14]: > 100 µM (inactive)
GI50 [20]: > 100 µM (inactive)
GI50 [17]: > 100 µM (inactive)
GI50 [18]: > 100 µM (inactive)

Cc1ccc(C)n1-n1c(Cc2ccccc2)n[nH]c1=O
GI50 [1]: > 100 µM (inactive)
GI50 [2]: > 100 µM (inactive)
GI50 [3]: > 100 µM (inactive)
GI50 [5]: > 100 µM (inactive)
GI50 [6]: > 100 µM (inactive)
GI50 [7]: 46 µM (inactive)
GI50 [19]: > 100 µM (inactive)
GI50 [8]: > 100 µM (inactive)
GI50 [9]: 76.7 µM (inactive)
GI50 [10]: > 100 µM (inactive)
GI50 [11]: > 100 µM (inactive)
GI50 [13]: > 100 µM (inactive)
GI50 [14]: > 100 µM (inactive)
GI50 [15]: > 100 µM (inactive)
GI50 [16]: > 100 µM (inactive)
GI50 [20]: > 100 µM (inactive)
GI50 [17]: > 100 µM (inactive)
GI50 [18]: > 100 µM (inactive)

N#Cc1c(-c2ccc([N+](=O)[O-])cc2)cc(-c2ccc(Nc3ccnc4cc(Cl)ccc34)cc2)[nH]c1=O
GI50 [1]: > 100 µM (inactive)
GI50 [2]: > 100 µM (inactive)
GI50 [3]: > 100 µM (inactive)
GI50 [4]: > 100 µM (inactive)
GI50 [5]: > 100 µM (inactive)
GI50 [6]: 63.8 µM (inactive)
GI50 [19]: > 100 µM (inactive)
GI50 [8]: > 100 µM (inactive)
GI50 [9]: > 100 µM (inactive)
GI50 [10]: > 100 µM (inactive)
GI50 [11]: > 100 µM (inactive)
GI50 [12]: 93.3 µM (inactive)
GI50 [14]: > 100 µM (inactive)
GI50 [15]: > 100 µM (inactive)
GI50 [16]: 98.9 µM (inactive)
GI50 [20]: > 100 µM (inactive)
GI50 [17]: > 100 µM (inactive)
GI50 [18]: > 100 µM (inactive)

CCOC(=O)/C(=N\Nc1ccc(-n2c(C)nc3ccc(Br)cc3c2=O)cc1)C(C)=O
GI50 [1]: > 100 µM (inactive)
GI50 [2]: 50.6 µM (inactive)
GI50 [3]: > 100 µM (inactive)
GI50 [4]: 38 µM (inactive)
GI50 [5]: 59.2 µM (inactive)
GI50 [6]: 52.1 µM (inactive)
GI50 [7]: 84.5 µM (inactive)
GI50 [19]: 25.2 µM (inactive)
GI50 [8]: 50.4 µM (inactive)
GI50 [9]: 54.3 µM (inactive)
GI50 [10]: 53.8 µM (inactive)
GI50 [11]: 88.7 µM (inactive)
GI50 [12]: 69.5 µM (inactive)
GI50 [13]: > 100 µM (inactive)
GI50 [14]: 62.4 µM (inactive)
GI50 [15]: > 100 µM (inactive)
GI50 [16]: 60.3 µM (inactive)
GI50 [17]: > 100 µM (inactive)
GI50 [18]: 33.1 µM (inactive)

COc1cc2c(c(OC)c1OC)-c1ccc(SC)cc1[C@H](OC(=O)c1ccccc1)CC2
GI50 [1]: 0.199 µM (active)
GI50 [2]: 0.0168 µM (active)
GI50 [3]: 0.0313 µM (active)
GI50 [4]: 0.286 µM (active)
GI50 [5]: 0.106 µM (active)
GI50 [6]: 0.0828 µM (active)
GI50 [7]: > 100 µM (inactive)
GI50 [19]: 0.151 µM (active)
GI50 [8]: 0.0311 µM (active)
GI50 [9]: 0.188 µM (active)
GI50 [10]: 0.123 µM (active)
GI50 [11]: 0.0571 µM (active)
GI50 [12]: 0.0935 µM (active)
GI50 [13]: 0.122 µM (active)
GI50 [14]: 0.0519 µM (active)
GI50 [15]: 0.145 µM (active)
GI50 [16]: > 100 µM (inactive)
GI50 [17]: 0.407 µM (active)
GI50 [18]: 27.5 µM (inactive)
